Ends that are not written are not given here.
Assays:
[1] = test system: Staphylococcus simulans; assay: Sytox green membrane damage assay, S. simulans; assay type: cell-based; conditions: Sytox green, Gram-positive bacteria, 20 °C, pH 7.2, 2 min before and 6 min after antibiotic; triplicates
Description: (§1) The bacterial cultures were grown overnight at 30 °C in TSB media for S. simulans and at 37 °C in LB medium for Bacillus subtilis. Secondary cultures were grown for 3 h until OD600 = 0.5 was reached. The bacterial cells were then centrifuged at 1,500g for 10 min at 4 °C and washed twice with 10 ml of buffer (10 mM Tris, 100 mM NaCl, 1 mM MgCl2 and 0.5% glucose, pH 7.2). The bacterial cells were resuspended to an OD600 = 10 in the buffer and used for the experiment. […] For the assay, 1 μl of the bacterial suspension was added to 1 ml of buffer. For the ion leakage assays, 1 μl of the DiSC-2 probe from a 1 mM stock was added to the cuvette and the fluorescence was measured between a wavelength of 650 nm and 670 nm (bandwidth of […]) for 2 min before the addition of the antibiotic and 6 min after. For the Sytox green leakage assays, 1 μl of the Sytox green probe from a 0.25 mM stock was added to the cuvette and the fluorescence was measured between a wavelength of 500 nm and 520 nm (bandwidth of […]) for 2 min before the addition of the antibiotic and 6 min after. All experiments were performed in triplicates.

[2] = test system: S. simulans; assay: MIC, S. simulans (given with permeabilization assay concentrations); assay type: cell-based
[3] = test system: B. subtilis; assay: MIC, B. subtilis (given with permeabilization assay concentrations); assay type: cell-based, Bacillus subtilis
Description: as §1

[4] = test system: Staphylococcus simulans; assay: DiSC membrane depolarization (ion leakage) assay, S. simulans; assay type: cell-based; conditions: DiSC-2 probe, Gram-positive bacteria (Fig. 4h and Extended Data Fig. 10b,c), 20 °C, pH 7.2, 2 min before and 6 min after antibiotic; triplicates
Description: as §1

[5] = species not clearly assigned (S. simulans by word order)

Molecule	membrane damage, Sytox green (in words) [1]	concentration stated as 1× MIC ([2]; S. simulans) [µM]	concentration stated as 10× MIC [3] [µM]	decrease in membrane potential / depolarization (in words) [4]	concentration stated as 1× MIC [2, 5] [µM]	concentration stated as 10× MIC [2, 5] [µM]
plectasin: lipid II binder plectasin (GFGCNGPWDEDDMQCHNHCKSIKGYKGGYCAKGGFVCKCY; ends and bridges not checked; cysteine pairing not given here; UniProt Q53I06 56-95, looked up) [reference compound]	Such effects were again absent	0.5	0.2	–	–	–
nisin	–	–	–	Membrane depolarization was also observed	0.01	–
CN[C@H](CC(C)C)C(=O)N[C@H]1C(=O)N[C@@H](CC(N)=O)C(=O)N[C@H]2C(=O)N[C@H]3C(=O)N[C@H](C(=O)N[C@H](C(=O)O)c4cc(O)cc(O)c4-c4cc3ccc4O)[C@H](O)c3ccc(c(Cl)c3)Oc3cc2cc(c3O[C@@H]2O[C@H](CO)[C@@H](O)[C@H](O)[C@H]2O[C@H]2C[C@](C)(N)[C@H](O)[C@H](C)O2)Oc2ccc(cc2Cl)[C@H]1O [vancomycin]	Such effects were again absent	–	–	–	–	10
